Reference: patent publication US9983200B2, “Compositions and methods for predicting age of onset of a lysosomal storage disease or a disease associated with a lysosomal defect” (The United States of America, as represented by the …, priority 2013, dated 2018)
Entries after “also recorded” stand apart in the source; their conditions may differ.

What was measured:
[1] = tested on: fibroblasts isolated from an individual with NPC1 disease (NPC-25); test: LysoTracker Red staining quantified by FACS in NPC1 patient fibroblasts; format: cell-based, human; conditions: for fold change in fluorescence (stained/unstained): NPD patient samples, Example 1, FIGS. 4, 5A, 5B; for normalizing fold-change in fluorescence in cells of NPD subjects: in vitro; for increased LysoTracker staining in NPC1 patient fibroblasts: Example 2, FIGS. 8 and 9; for LysoTracker Red staining intensity (NPC1-associated cholesterol storage defects): NPC-25 cells
Method: (D) Bar graphs showing the percentage change of LysoTracker (y-axis) staining intensity in untreated NPC-25 cells (blue bar, set to 100%) as compared to NPC25 cells treated with MβCD, α-T or δ-T (green bars). […] MβCD (Sigma-Aldrich, St. Louis, Mo. cat. #C4555) was resuspended in sterile H2O to a 1 mM stock solution, while α-T and δ-T were dissolved in DMSO to 40 μM, therefore the untreated controls were no drug added for methyl-β-cyclodextrin treatment, and DMSO only added for α-T and δ-T treatment. Statistical analyses performed using Prism (GraphPad).
Cells were cultured in DMEM with fetal bovine serum, L-glutamine, and antibiotics at 5% CO2 in a 37° C. incubator. Cell staining was carried out as follows: Lysotracker-Red Staining Protocol: • Day1—Change media 24 hours before FACS analysis, if treating cells with methyl beta cyclodextrin add the drug as well. • Day2—Note: WORK IN THE DARK, (PROTECT TUBES FROM THE LIGHT while using lysotracker-red) • Dilute LYSOTRACKER-red (1:1000) for a final concentration of 1 μM with culture media. • Incubate cells with lysotracker in the incubator (37° C.) for 30 minutes. • Aspirate media and wash twice with 1×PBS (2 mls each time). • Add 300 μls of Trypsin • Resuspend cells into 5 mls of media and centrifuge at 1000 rpm for 10 minutes in order to obtain pellet. • Resuspend the pellet into 500 uls of media and transfer to FACS vials at 4° C. in the dark. • Perform FACS analysis.
The fluorescence of the cell samples was quantified before and after staining and the fold change in fluorescence was calculated as the ratio of fluorescent intensity after dye/cell autofluorescence. This change was then plotted as a function of time.
Cells were plated onto 60 mm tissue culture dishes and cultured to 70-80% confluency. Media were replaced 24 h prior to analysis. On the day of analysis, cells were incubated at 37° C. for 30 min in fresh media containing 1 μM LysoTracker Red dye (LysoTracker) in 3 mL medium/60 mm dish. Cells were then given two PBS washes, trypsinized, pelleted and resuspended in 500 μL medium. FACS data were collected on 10,000 cells using a FACSCalibur (Becton Dickinson Biosciences, Franklin Lakes, N.J.) equipped with Cell Quest software and analyzed using FlowJo (Tree Star). Fold change in LysoTracker staining was calculated as the ratio of geometric means of stained/unstained samples. Duplicate biological replicates were analyzed on three different days, totaling 6 independent samples per cell line.

[2] = tested on: control fibroblasts (CTL1); test: LysoTracker Red staining quantified by FACS in control (wild type) fibroblasts; format: cell-based, human; conditions: wild type samples, Example 1, FIGS. 4, 5A
Method: (A, B) Histograms of FACS analysis of control fibroblasts (A, CTL1) and fibroblasts isolated from an individual with NPC1 disease (B, NPC-25). […] Pink line indicates distribution of unstained cells; blue line indicates LysoTracker-stained cells transfected with an empty control vector (pLenti6.2 Vector/V5 DEST, Invitrogen); green line indicates LysoTracker-stained cells transfected with a human NPC1 cDNA expression vector (Origene, Rockville, Md.; cat. #SC120010). At 72 hours post-transfection, cells were stained with LysoTracker Red dye and analyzed by FACS. […]
The fluorescence of the cell samples was quantified before and after staining and the fold change in fluorescence was calculated as the ratio of fluorescent intensity after dye/cell autofluorescence. […]
Cells were plated onto 60 mm tissue culture dishes and cultured to 70-80% confluency. […] FACS data were collected on 10,000 cells using a FACSCalibur (Becton Dickinson Biosciences, Franklin Lakes, N.J.) equipped with Cell Quest software and analyzed using FlowJo (Tree Star). Fold change in LysoTracker staining was calculated as the ratio of geometric means of stained/unstained samples. Duplicate biological replicates were analyzed on three different days, totaling 6 independent samples per cell line.

cultured cells = conditions: cited from earlier work
[3] = tested on: fibroblasts isolated from an individual with NPC1 disease (NPC-25); test: LysoTracker Red staining quantified by FACS in NPC1 patient fibroblasts; format: cell-based, human; conditions: NPC4 cells
[4] = tested on: fibroblasts (NPC1, NPC2, Wolman, Batten, Fabry, Farber, Niemann-Pick A, Sanfilippo type B, Tay-Sachs diseases); conditions: 40 μM, fibroblasts of NPC1, NPC2, Wolman; cited from earlier work

In the case of Tocopherol, the “fold change in fluorescence (stained/unstained)” value [1] is reported as “effective in reducing the fold change in fluorescence” and the “normalizing fold-change in fluorescence in cells of NPD subjects” value [1] is reported as “useful in normalizing fold-change in fluorescence”.
In the case of Methyl-β-cyclodextrin [MβCD], the “fold change in fluorescence (stained/unstained)” value [2] is listed as “reduced”, the “removal of cholesterol from cultured cells” value (cultured cells) is listed as “remove cholesterol; also recorded: more efficient than β-cyclodextrin” and the “increased LysoTracker staining in NPC1 patient fibroblasts” value [1] is listed as “lessened”. For the same compound, the “LysoTracker Red staining intensity (NPC1-associated cholesterol storage defects)” value (from here on “LysoTracker Red staining intensity”) ([1]; 300 μM MβCD for 24 hours, vs untreated cells (100%)) was “relieved NPC1-associated cholesterol storage defects” and the “fold change in fluorescence (stained/unstained)” value [1] was “reduced”.
With cyclodextrin the “fluorescence values by FACS (FIG. 1A)” value [3] was “corrected” and the “normalizing fold-change in fluorescence in cells of NPD subjects” value [1] was “useful in normalizing fold-change in fluorescence; also recorded: normalize the fold-change in fluorescence”.
For `OC[C@H]1O[C@@H]2O[C@H]3[C@H](O)[C@@H](O)[C@@H](O[C@H]4[C@H](O)[C@@H](O)[C@@H](O[C@H]5[C@H](O)[C@@H](O)[C@@H](O[C@H]6[C@H](O)[C@@H](O)[C@@H](O[C@H]7[C@H](O)[C@@H](O)[C@@H](O[C@H]8[C@H](O)[C@@H](O)[C@@H](O[C@H]1[C@H](O)[C@H]2O)O[C@@H]8CO)O[C@@H]7CO)O[C@@H]6CO)O[C@@H]5CO)O[C@@H]4CO)O[C@@H]3CO` [β-cyclodextrin], the “removal of cholesterol from cultured cells” value (cultured cells) is given as “remove cholesterol”.
In the case of `Cc1cc(O)cc2c1O[C@](C)(CCC[C@H](C)CCC[C@H](C)CCCC(C)C)CC2` [δ-T, δ-tocopherol], the “increased LysoTracker staining in NPC1 patient fibroblasts” value [1] is listed as “lessened”, the “LysoTracker Red staining intensity” value ([1]; 40 μM δ-T for 72 hours, vs DMSO only) is listed as “relieved NPC1-associated cholesterol storage defects” and the “lysosomal storage defects (including LysoTracker staining)” value [4] is listed as “reduced lysosomal storage defects”.
With `Cc1c(C)c2c(c(C)c1O)CC[C@@](C)(CCC[C@H](C)CCC[C@H](C)CCCC(C)C)O2` [α-T, α-tocopherol] the “LysoTracker Red staining intensity” value ([1]; 40 μM α-T for 72 hours, vs DMSO only) was “not”.
